The source made the active and inactive calls. The calls are words filed in the database; no cut-off is given here.

In series [1] the test system is A549. The series can be described thus: Cytotoxicity against human A549 assessed as reduction in cell viability measured after 72 hrs by MTT assay. In kind it is functional, cell-based. Particulars: A549, 72 h.
The test system of series [2] is NCI-H1975. In words: Cytotoxicity against human NCI-H1975 assessed as reduction in cell viability measured after 72 hrs by MTT assay. In kind it is functional, cell-based. Particulars: NCI-H1975, 72 h. (In general: Tetrazolium assays rely on reduction of a dye to a coloured formazan, in cell work by metabolically active cells.)
Series [3] relates to HCT-116. The series can be described thus: Cytotoxicity against human HCT-116 assessed as reduction in cell viability measured after 72 hrs by MTT assay. Particulars: HCT-116, 72 h. It counts as functional, cell-based.
Series [4] relates to Raji. The series can be described thus: Cytotoxicity against human Raji assessed as reduction in cell viability measured after 72 hrs by MTT assay. It counts as functional, cell-based.
Series [5] deals with COLO 205. In words: Cytotoxicity against human COLO 205 assessed as reduction in cell viability measured after 72 hrs by MTT assay. It counts as functional, cell-based. Conditions: COLO 205, 72 h.
Series [6] has as its system HeLa. The series can be described thus: Cytotoxicity against human Hela assessed as reduction in cell viability measured after 72 hrs by MTT assay. It counts as functional, cell-based.
Series [7] deals with LoVo. The series can be described thus: Cytotoxicity against human LoVo assessed as reduction in cell viability measured after 72 hrs by MTT assay. It counts as functional, cell-based.
The test system of series [8] is HCT-116. In words: Induction of apoptosis in human HCT-116 cells assessed as late apoptotic cells level at 1 uM incubated for 24 hrs by Annexin V-FITC/PI staining based flow cytometry (reference value: 0.07%). It counts as functional.
Series [9] is described as follows: Solubility of compound in water incubated for 24 hrs under shaking condition by HPLC analysis. It counts as physicochemical.
Series [10] relates to HCT-116. The series can be described thus: Induction of apoptosis in human HCT-116 cells assessed as late apoptotic cells level at 0.03 uM incubated for 24 hrs by Annexin V-FITC/PI staining based flow cytometry (reference value: 0.07%). It counts as functional. On the technique in general: In flow cytometry, cells or beads pass a laser one at a time.
The test system of series [11] is HCT-116. The series can be described thus: Induction of apoptosis in human HCT-116 cells assessed as early apoptotic cells level at 0.001 uM incubated for 24 hrs by Annexin V-FITC/PI staining based flow cytometry (reference value: 0.17%). In kind it is functional.
The subject of series [12] is HCT-116. The series can be described thus: Inhibition of colony formation in human HCT-116 cells at 1 nM incubated for 12 days by crystal violet dye based assay. In kind it is functional, cell-based. Conditions: time 12.0 day.
The subject of series [13] is HCT-116. In words: Induction of apoptosis in human HCT-116 cells assessed as early apoptotic cells level at 1 uM incubated for 24 hrs by Annexin V-FITC/PI staining based flow cytometry (reference value: 0.17%). It counts as functional.
A short description of series [14]: Solubility of compound in phosphate buffer at pH 7.4 incubated for 24 hrs under shaking condition by HPLC analysis. In kind it is physicochemical.
The test system of series [15] is HCT-116. The series can be described thus: Induction of apoptosis in human HCT-116 cells assessed as early apoptotic cells level at 0.03 uM incubated for 24 hrs by Annexin V-FITC/PI staining based flow cytometry (reference value: 0.17%). It counts as functional.
Series [16] relates to HCT-116. In words: Induction of apoptosis in human HCT-116 cells assessed as late apoptotic cells level at 0.001 uM incubated for 24 hrs by Annexin V-FITC/PI staining based flow cytometry (reference value: 0.07%). It counts as functional.
The nature of series [17]: Solubility of compound in phosphate buffer at pH 4.5 incubated for 24 hrs under shaking condition by HPLC analysis. In kind it is physicochemical.
The subject of series [18] is Raji. In words: Antitumor activity against NPG mouse xenografted with human Raji cell assessed as tumor growth inhibition at 5 mg/kg, ip measured after 5 day. It counts as functional. Particulars: 120 h, read-out: TGI. (In general: Xenograft models place foreign cells or tissue in a host animal.)
A short description of series [19]: Toxicity in NPG mouse xenografted with human Raji cells assessed as body weight loss at 5 mg/kg, ip measured on the 1 day. Conditions: in vivo, 24 h. It counts as organism-based.
Series [20] in a line: Toxicity in nude BALB/c mouse xenografted with human HCT-116 cells assessed as reduction in body weight at 20 mg/kg, po dosed once the every 2 day for upto 24 days. Particulars: in vivo, time <=24 day. It counts as organism-based.
Series [21] in a line: Toxicity in NPG mouse xenografted with human Raji cells assessed as body weight loss at 5 mg/kg, ip measured after 5 day. Conditions: in vivo, 120 h. In kind it is organism-based.

With `CCc1c2c(nc3ccc(OCC(=O)N4CCCC4)cc13)-c1cc3c(c(=O)n1C2)COC(=O)[C@]3(O)CC`, the IC50 (as a rule, the point on the concentration scale where inhibition reaches its midpoint) in [1] came out at 37 nM; in series [2] it was 630 nM; in [3], 12 nM; in series [4], 6 nM; in [5], 250 nM; in series [6], 350 nM. In addition, the IC50 in series [7] is 181 nM.

With `CC[C@@]1(O)C(=O)OCc2c1cc1n(c2=O)Cc2cc3cc(OCC(=O)N(C)CCN(C)C)ccc3nc2-1`, the IC50 in [1], in [2], in series [3], in series [5], in series [6] and in [7] was greater than 10000 nM throughout.

Turning to `CCN(CC)C(=O)COc1ccc2nc3c(cc2c1)Cn1c-3cc2c(c1=O)COC(=O)[C@]2(O)CC`, the IC50 in series [1] is 261 nM; in series [2], 1960 nM; in series [3], 101 nM; in [5], 1520 nM; in [6], 1010 nM; in series [7], 933 nM.

For `CC[C@@]1(O)C(=O)OCc2c1cc1n(c2=O)Cc2cc3cc(OCC(=O)N4CCN(C)CC4)ccc3nc2-1`, the half-inhibitory concentration (IC50) in [1] was greater than 10000 nM; in series [2], greater than 10000 nM; in series [3] it was greater than 10000 nM; in series [5], greater than 10000 nM; in [6], 2570 nM; in series [7] it was greater than 10000 nM.

For the compound `CCc1c2c(nc3ccc(O)cc13)-c1cc3c(c(=O)n1C2)COC(=O)[C@]3(O)CC` [7-ETHYL-10-HYDROXYCAMPTOTHECIN], the Activity is listed as 7.12% in series [8]; 8.29% in [10]; 2.91% in [11]; 24.42% in [13]; 3.11% in [15]; 2.81% in series [16]. Further, the thermodynamic solubility at 24 h in series [9], in series [14] and in [17] was less than 0.25 µg/mL each time. For the same compound, the IC50 is 18 nM in [1]; 810 nM in series [2]; 10 nM in series [3]; 5 nM in series [4]; 220 nM in series [5]; 145 nM in [6]. Further, the concentration for half-maximal inhibition (IC50) in [7] came out at 301 nM. In series [12], the inhibition result is “Active”.

In the case of `CC[C@@]1(O)C(=O)OCc2c1cc1n(c2=O)Cc2cc3cc(OCC(=O)N4CCCCC4)ccc3nc2-1`, the 50% inhibitory concentration (IC50) is 55 nM in series [1]; 1380 nM in series [2]; 17 nM in series [3]; 540 nM in series [5]; 380 nM in [6]; 272 nM in series [7].

Regarding `CC[C@@]1(O)C(=O)OCc2c1cc1n(c2=O)Cc2cc3cc(OCC(=O)N4CCC(N(C)C)CC4)ccc3nc2-1`, the IC50 in [1], in series [2], in [3], in [5], in [6] and in series [7] was greater than 10000 nM throughout.

As for `CC[C@@]1(O)C(=O)OCc2c1cc1n(c2=O)Cc2cc3cc(O)ccc3nc2-1` [HYDROXYCAMPTOTHECIN], the half-maximal inhibitory concentration (IC50) in [1] worked out at 80 nM; in series [3] it was 21 nM; in [7], 330 nM.

Turning to `CCN(CC)CCNC(=O)COc1ccc2nc3c(cc2c1)Cn1c-3cc2c(c1=O)COC(=O)[C@]2(O)CC`, the IC50 in [1], in series [2], in series [3], in series [5], in [6] and in series [7] was greater than 10000 nM throughout.

For the compound `CC[C@@]1(O)C(=O)OCc2c1cc1n(c2=O)Cc2cc3cc(OCC(=O)NCCN(C)C)ccc3nc2-1`, the IC50 in series [1], in [2], in series [3], in [5], in series [6] and in series [7] was greater than 10000 nM each time.

Consider `CC[C@@]1(O)C(=O)OCc2c1cc1n(c2=O)Cc2cc3cc(OCC(=O)N4CCCC4)ccc3nc2-1`, for which the 50% inhibitory concentration (IC50) is 80 nM in [1]; 2810 nM in series [2]; 81 nM in series [3]; 2830 nM in [5]; 1370 nM in series [6]; 880 nM in series [7].

Regarding `CCc1c2c(nc3ccc(OC(=O)N4CCC(N5CCCCC5)CC4)cc13)-c1cc3c(c(=O)n1C2)COC(=O)[C@]3(O)CC.Cl`, the inhibition in vivo at 5 mg/kg in series [18] is 7.1%. The Activity is given as 24.2 g in series [19], “Toxic” in series [20] and 23.5 g in series [21].

(Values after ChEMBL document CHEMBL4706505, “F10, a new camptothecin derivative, was identified as a new orally-bioavailable, potent antitumor agent” (Eur J Med Chem, 2020).)
